{"source": "ChEMBL document CHEMBL5154740", "about": "“Novel Aurora A and Protein Kinase C (α, β1, β2, and θ) Multitarget Inhibitors: Impact of Selenium Atoms on the Potency and Selectivity” (J Med Chem, 2022)", "system": "4T1", "experiment": "Antitumor activity against mouse 4T1 cells xenografted in BALB/c mouse assessed as tumor growth inhibition at 10 mg/kg, po administered 3 times a week for 30 days", "assay_type": "functional, organism-based", "settings": "time 30.0 day", "note": "Activity calls are given as the source filed them. The rule behind the calls is not given here.", "data": [{"smiles": "O=c1c2ccccc2[se]n1-c1nc(N[C@H]2CC[Se]C2)c2nc[nH]c2n1", "values": [{"measurement": "Activity", "result": "Active"}]}]}
